Data on three molecules can be found in PMC8401042, “Non-Toxic Dimeric Peptides Derived from the Bothropstoxin-I Are Potent SARS-CoV-2 and Papain-like Protease Inhibitors” (Molecules, 2021).

For orientation: inhibition means how much of the control response was suppressed. As a reminder, the Kd is a measure of binding affinity in units of concentration. The low end stands for a tighter complex, the high end for a looser complex.

Assay [1] deals with T1, SARS-CoV-2 PLpro (Severe acute respiratory syndrome coronavirus 2, UniProt P0DTD1). Briefly: SARS-CoV-2 PLpro FRET enzyme inhibition assay. It counts as biochemical. As to conditions: for inhibition at 10 µM: 10 µM peptide, 70 nM enzyme, 27 µM substrate, 37 °C; for IC50: calculated from IC50 values, Figure 3A, read-out: pIC50 (−logIC50), PLpro (converted).
Assay [2] concerns the target T1, SARS-CoV-2 PLpro. The experiment in a line: Microscale thermophoresis (MST) binding assay. The settings on record: 100 nM labelled PLpro, peptides 0.015 to 500 µM, 50 mM HEPES pH 7.5, 100 mM NaCl, 2 mM DTT, DMSO 5%; triplicate, Hill fit. In general terms: Microscale thermophoresis detects binding through changes in fluorescence in a small temperature gradient.
Another assay has as its system SARS-CoV-2. The settings on record: 24 h, 100 µM.
For assay [3], the target named is SARS-CoV-2 Papain-like protease (PL^pro) (SARS-CoV-2) (UniProt P0DTD1).
The target is the same in assay [4]. This is another data set of the same source.

Bridge positions count the residues as written; N and C are the ends. Square brackets hold non-standard residues; d marks the D form. Ends that are not written are not given here. Peptide text beside a SMILES is read from it. I, II: the chains in the order shown. Bounds are passed on as bounds.

As to `CC(C)C[C@@H](NC(=O)[C@@H](Cc1c[nH]cn1)NC(=O)[C@@H](Cc1ccc(O)cc1)NC(=O)[C@@H](CCCNC(=N)N)NC(=O)[C@@H](Cc1ccc(O)cc1)NC(=O)[C@@H](CCCCN)NC(=O)[C@H](N)CCCCN)C(=O)N[C@H](CCCCN)C(=O)N1CCC[C@@H]1C(=O)N[C@H](Cc1ccccc1)C(=O)NCCCC[C@@H](NC(=O)[C@@H](Cc1ccccc1)NC(=O)[C@H]1CCCN1C(=O)[C@@H](CCCCN)NC(=O)[C@@H](CC(C)C)NC(=O)[C@@H](Cc1c[nH]cn1)NC(=O)[C@@H](Cc1ccc(O)cc1)NC(=O)[C@@H](CCCNC(=N)N)NC(=O)[C@@H](Cc1ccc(O)cc1)NC(=O)[C@@H](CCCCN)NC(=O)[C@H](N)CCCCN)C(N)=O` [A12] (I: H-[dK][dK][dY][dR][dY][dH][dL][dK][dP][dF][dK]-NH2 / II: H-[dK][dK][dY][dR][dY][dH][dL][dK][dP][dF]; amide I:11-II:C; N-terminus assumed), at SARS-CoV-2 PLpro [1], 10 µM produced 96% inhibition and the IC50 was 1290 nM. Also, on SARS-CoV-2 PLpro [2], the dissociation constant (Kd) stood at 1600 ± 300 nM. The “SARS-CoV-2 % of inhibition at 100 µM” value with SARS-CoV-2 is given as 69%.
In the case of “I: KKYRYHLKPFKK-NH2 / II: KKYRYHLKPFK / III: KKYRYHLKPF / IV: KKYRYHLKPF (amide I:11-IV:C, I:12-II:C, II:11-III:C) [A11]”, on SARS-CoV-2 PLpro [1], at 10 µM the inhibition was 98% and the IC50 was 1410 nM. In addition, the dissociation constant (Kd) on SARS-CoV-2 PLpro [2] was found to be 1000 ± 200 nM. In addition, in the assay on SARS-CoV-2, the “SARS-CoV-2 % of inhibition at 100 µM” value turned out to be 54%.

B1: Hylin a1 (peptide)
peptide: IFGAILPLALGALKNLIK-NH2
As to B1, in assay [3], the IC50 of inhibition of PL^pro activity (cleavage of a FRET peptide substrate) was above 10000 nM. For the same molecule, the percent inhibition of PL^pro activity at 10 µM peptide in assay [4] was found to be 13%.
